# Results published in PMC6123711, “Conformational signatures in β-arrestin2 reveal natural biased agonism at a G-protein-coupled receptor” (Communications Biology, 2018).
# Assays:
# [1] = system: Galr2–β-arrestin2–clathrin complex; test: β-arrestin2–clathrin interactions (NanoBit); format: cell-based, human; details: for Log(τ/KA), Clathrin:β-arrestin2 / formation of Galr2–β-arrestin2–clathrin complex: data at 5 min after agonist; for Log(τ/KA), Clathrin:β-arrestin2: operational model (Eq. 2); for Log(τ/KA), Clathrin:β-arrestin2 / ΔLog(τ/KA), Clathrin:β-arrestin2: mean ± s.e.m. of three experiments in triplicate; for formation of Galr2–β-arrestin2–clathrin complex: dose–response, normalized to Galanin; for ΔLog(τ/KA), Clathrin:β-arrestin2: normalized to Galanin (reference agonist), in parenthesis
# Source text: The interaction between β-arrestin2 and clathrin induced by the activation of Galr2 was examined using the NanoBit technology. We measured real-time association of the protein complex Galr2–β-arrestin2–clathrin. We constructed β-arrestin2 and clathrin subunit A tagged with LgBit or SmBit at the C or N termini and screened eight different plasmid combinations, out of which only one combination (β-arrestin2–LgBit:SmBit–clathrin) responded to ligand stimulation (Fig. 3, Supplementary Fig. 3). Before ligand stimulation, Galr2, β-arrestin2, and clathrin were not in close proximity and so the basal luminescence was very low. […] A time course experiment was initially performed to determine the time at which the maximal increase in luminescence occurred following agonist stimulation. All ligands except for Fmoc-dA4-dQ14 induced different fold increase in luminescence immediately after ligand treatment (Fig. 3b). […] Galanin- and Spexin-induced increases in luminescence were attenuated by pretreatment of cmpd101, a G-protein-coupled receptor kinase 2/3 (GRK2/3) inhibitor, indicating contribution of GRK2/3 in the formation of Galr2–β-arrestin2–clathrin complex (Fig. 3).
# The arrows indicate the time when the cells were treated with different ligands. […] The results are expressed as mean ± s.e.m. of three experiments performed in triplicate. Each triplicate was averaged before calculating the s.e.m.
# (§1) Quantification of bias between each pathway was performed using Galanin as a reference ligand. All incubations for the different signaling assays were performed in serum-free medium to prevent peptide degradation.
# One day before transfection, cells were seeded in 96-well plates at a density of 2.5 × 10^4 cells per well. A mixture containing 35 ng β-arrestin construct containing the LgBit or SmBit, 35 ng clathrin subunit A containing one of the two domains of Nluc and 30 ng untagged receptor, and 0.2 μl Lipofectamine 2000 (Invitrogen) was prepared and added to each well. We followed the assay manufacturer’s instructions and tested eight β-arrestin-clathrin plasmid combinations. In only one plasmid combination we were able to observe luminescent signal and it was chosen for further experiments. At 24 h post transfection, medium was aspirated and replaced with 100 μl OPTIMEM at room temperature. After a 10-min incubation, 25 μl substrate (furimazine) was added and the luminescence was monitored once every minute for 10 min. Then, 10 μl ligand was added to each well and the luminescence values were recorded immediately and once every minute for 1 h (Synergy 2 Multi-Mode Microplate Reader BioTek).
# [2] = system: β-arrestin2–Galr2 interaction (Galr2); test: β-Arrestin2 recruitment using NanoBit technology; format: cell-based, human; details: for Log(τ/KA), β-Arrestin2: HEK293 cells, luminescence at 5 min after agonist, operational model (Eq. 2)
# Source text: The β-arrestin recruitment assays were developed based on a structural complementation assay using NanoBit technology. Briefly, NanoBit technology is a system that basically consists of Nano luciferase (Nluc), which is a small protein that catalyzes a bright luminescent reaction. To create a complementation system, Nluc was separated into two subunits that individually produce very little enzymatic activity. […] Because of this low affinity for each other, these two fragments can bind when they are in close proximity. The interaction between the LgBit and the SmBit can be driven by the interactions of the fusion partners, allowing them to study protein–protein interaction in live cells. As the interaction is reversible, the association and dissociation can be monitored. There is no lag time in the loss of luminescence, and so the immediate detection allows for accurate assessment of temporal dynamics. […] To accurately monitor β-arrestin recruitment, four plasmid combinations between LgBit and SmBit with the fusion partners Galr2 and β-arrestins were screened. The plasmid combination with the highest luminescence signal was chosen for further studies (Fig. 2a, Supplementary Fig. 1). Using data points at 5 min after ligand stimulation, we obtained dose–response curves that corresponded to β-arrestin1/2 recruitment (Fig. 2d, e, Supplementary Fig. 2).
# Fig. 2 The effect of different endogenous ligands in β-arrestin1/2 recruitment. a Schematic representation of the structural complementation assay used to monitor β-arrestin1/2–Galr2 interactions. Kinetic traces of β-arrestin1 (b) and β-arrestin2 (c) recruitment after Galr2 activation with 1 μM of three different agonists. Dose–response curves for recruitment of β-arrestin1 (d), and β-arrestin2 (e). Luminescence signal intensity obtained at 5 min after agonist stimulation was measured. […] The results are expressed as mean ± s.e.m. of three experiments performed in triplicate; each triplicate was averaged before calculating the s.e.m. The arrows indicate the time at which the cells were treated with the different ligands
# as §1
# HEK293 cells were obtained from the American Type Culture Collection (ATCC, CRL-1573; Manassas, VA, USA). […] After a 10-min incubation, 25 μl substrate (furimazine) was added and once every minute subsequent luminescence measurements were taken for 10 min for signal stabilization. A total of 10 μl ligand was then added to each well and luminescence measurements were recorded immediately and once every minute for 1 h (Synergy 2 Multi-Mode Microplate Reader BioTek, Winooski, VT, USA).
# [3] = mean ± s.e.m. of three experiments in triplicate
Molecule,"Log(τ/KA), Clathrin:β-arrestin2 [1]",formation of Galr2–β-arrestin2–clathrin complex [1],"ΔLog(τ/KA), Clathrin:β-arrestin2 [1]","Log(τ/KA), β-Arrestin2 [2, 3]","ΔLog(τ/KA), β-Arrestin2 ([2]; normalized to Galanin (reference agonist), in parenthesis, mean ± s.e.m. of three experiments in triplicate)","agonism in β-arrestin2 recruitment ([2]; dose–response, data at 5 min after ligand stimulation, compared with Galanin)"
Galanin [reference compound],8.00 ± 0.18,highest response,0.00 ± 0.20,7.20 ± 0.02,0.00 ± 0.02,
"Spexin (peptide, UniProt Q9BT56 27-116, looked up, Spexin, endogenous peptide ligand of Galr2 and Galr3; synthesized by AnyGen) Spexin: APQRLLERRNWTPQAMLYLKGAQGRRFISDQSRRKDLSDRPLPERRSPNPQLLTIPEAATILLASLQKSPEDEEKNFDQTRFLEDSLLNW",6.22 ± 0.10,lower potency and efficacy than Galanin,−1.80 ± 0.10,6.40 ± 0.03,,partial agonists
